Reference: the supplement of paper PMC4862054

Assays:
Assay in all cases: normalised response (% of control), CellTiter-Glo; higher = more viable cells (100 = DMSO, 0 = benzethonium chloride kill control)
Details in all cases: incubation time: 72 h
MDA-MB-453 = test system: MDA-MB-453
In short: (§1)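 A 20 µl suspension of breast cancer cells was seeded into each well of 384-well plates containing compound at 5 concentrations in 10-fold steps over a compound-specific 10,000-fold range. After 72 h incubation, CellTox Green fluorescence (485/520 nm) was read first, and CellTiter-Glo luminescence was read after 10 min at room temperature. Each plate was normalised against 0.1 % DMSO (100) and a positive kill control (0), and each value is the normalised signal at one concentration.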

HCC1143 = test system: HCC1143
In short: as §1

HCC1937 = test system: HCC1937
In short: as §1

CAL-148 = test system: CAL-148
In short: as §1

MFM-223 = test system: MFM-223
In short: as §1

MDA-MB-231 = test system: MDA-MB-231
In short: as §1

CAL-120 = test system: CAL-120
In short: as §1

BT-474 = test system: BT-474
In short: as §1

MDA-MB-436 = test system: MDA-MB-436
In short: as §1

MCF-10A = test system: MCF-10A
In short: as §1

SK-BR-3 = test system: SK-BR-3
In short: as §1

Hs578T = test system: Hs578T
In short: as §1

CAL-85-1 = test system: CAL-85-1
In short: as §1

BT-549 = test system: BT-549
In short: as §1

MDA-MB-468 = test system: MDA-MB-468
In short: as §1

HDQ-P1 = test system: HDQ-P1
In short: as §1

CAL-51 = test system: CAL-51
In short: as §1

DU-4475 = test system: DU-4475
In short: as §1

HCC1599 = test system: HCC1599
In short: as §1

Row | SMILES | normalised response (MDA-MB-453) | normalised response (HCC1143) | normalised response (HCC1937) | normalised response (CAL-148) | normalised response (MFM-223) | normalised response (MDA-MB-231) | normalised response (CAL-120) | normalised response (BT-474) | normalised response (MDA-MB-436) | normalised response (MCF-10A) | normalised response (SK-BR-3) | normalised response (Hs578T) | normalised response (CAL-85-1) | normalised response (BT-549) | normalised response (MDA-MB-468) | normalised response (HDQ-P1) | normalised response (CAL-51) | normalised response (DU-4475) | normalised response (HCC1599)
1 | COc1ccc(-c2cc3c(C)nc(N)nc3n([C@H]3CC[C@H](OCCO)CC3)c2=O)cn1 (1 nM) | 97.4% | 88.6% | 96.2% | 82.3% | 85.4% | 96.5% | 91.1% | 93.4% | 83.5% | 84.8% | 80.9% | 96.8% | 93.8% | 101% | 97% | 89.5% | 112% | 90.7% | 104%
2 | COc1cc(CCc2cc(NC(=O)c3ccc(N4CC(C)NC(C)C4)cc3)n[nH]2)cc(OC)c1 (centres undefined) [AZD4547] (0.1 nM) | 97.5% | 101% | 94.2% | 82.8% | 93.2% | 101% | 104% | 97.5% | 102% | 92.3% | 91.5% | 95.3% | 97.9% | 105% | 103% | 99.9% | 135% | 97.9% | 115%
3 | CCN(CC)CCNC(=O)c1c(C)[nH]c(/C=C2\C(=O)Nc3ccc(F)cc32)c1C [Sunitinib] (1 nM) | 105% | 103% | 107% | 103% | 105% | 101% | 107% | 109% | 104% | 107% | 111% | 97.7% | 99.9% | 95.5% | 106% | 97.1% | 141% | 99.4% | 119%
4 | Nc1cccc2c1CN(C1CCC(=O)NC1=O)C2=O (centres undefined) [Lenalidomide] (10 nM) | 104% | 105% | 91.2% | 99.7% | 95.8% | 97.8% | 92.6% | 97.8% | 91.9% | 104% | 107% | 97.1% | 106% | 101% | 105% | 99.9% | 73.6% | 102% | 111%
5 | Cc1nc(Nc2ncc(C(=O)Nc3c(C)cccc3Cl)s2)cc(N2CCN(CCO)CC2)n1 [Dasatinib] (0.1 nM) | 112% | 96.5% | 98.5% | 96.9% | 99.9% | 93.9% | 98.9% | 97.3% | 101% | 107% | 98.3% | 99.7% | 94.2% | 98.3% | 93.3% | 98.9% | 77% | 94.6% | 99%
6 | COc1nc(N)nc2c1ncn2[C@@H]1O[C@H](CO)[C@@H](O)[C@@H]1O [Nelarabine] (10 nM) | 88.1% | 96.2% | 102% | 81.3% | 88% | 97.4% | 90.8% | 87.5% | 97.7% | 88.7% | 70.6% | 96.5% | 96.4% | 99.5% | 90.5% | 89.9% | 77.6% | 98% | 88.6%
7 | CC(=O)OC[C@H]1O[C@@H]([S-])[C@H](OC(C)=O)[C@@H](OC(C)=O)[C@@H]1OC(C)=O.CCP(CC)CC.[Au+] [Auranofin] (0.25 nM) | 103% | 99% | 92.3% | 101% | 103% | 104% | 100% | 99.4% | 93.8% | 108% | 101% | 104% | 93.8% | 97.4% | 95.7% | 99.9% | 70.1% | 97.9% | 75.3%
8 | Nc1cccc2c1CN(C1CCC(=O)NC1=O)C2=O (centres undefined) [Lenalidomide] (1 nM) | 112% | 93.1% | 94% | 97.8% | 97.3% | 98.4% | 94.9% | 97% | 94% | 96.1% | 107% | 97.1% | 108% | 101% | 110% | 97.9% | 113% | 106% | 106%
9 | Cc1ccc(Nc2nccc(N(C)c3ccc4c(C)n(C)nc4c3)n2)cc1S(N)(=O)=O [Pazopanib] (1 nM) | 125% | 97.4% | 96.2% | 108% | 99.3% | 96.8% | 95.4% | 98.1% | 97.3% | 94.8% | 109% | 99.8% | 110% | 104% | 106% | 101% | 98.5% | 109% | 100%
10 | COc1ccc(-c2cc3c(C)nc(N)nc3n([C@H]3CC[C@H](OCCO)CC3)c2=O)cn1 (10 nM) | 83.5% | 96.5% | 86.2% | 87.8% | 88.9% | 90.7% | 92.3% | 88.8% | 85.4% | 79.8% | 67.2% | 94.8% | 90.8% | 89.6% | 82.6% | 87.2% | 82.8% | 93.2% | 89.3%
11 | O=C1c2c(O)ccc(O)c2C(=O)c2c(NCCNCCO)ccc(NCCNCCO)c21 [Mitoxantrone] (1 nM) | 103% | 98.3% | 98.7% | 101% | 106% | 100% | 96.9% | 94.5% | 98.8% | 97.8% | 100% | 102% | 100% | 91.3% | 100% | 96.2% | 73.6% | 99.1% | 96.7%
12 | C[C@]12C=CC(=O)C=C1CC[C@@H]1[C@@H]2[C@@H](O)C[C@@]2(C)[C@H]1CC[C@]2(O)C(=O)CO [Prednisolone] (10 nM) | 106% | 100% | 100% | 113% | 104% | 108% | 103% | 112% | 95.9% | 112% | 112% | 101% | 102% | 99.8% | 105% | 100% | 99.4% | 106% | 97.6%
13 | CCC/C=C/C=C/C(=O)O[C@H]1/C(=C/C(=O)OC)C[C@H]2C[C@H]([C@@H](C)O)OC(=O)C[C@H](O)C[C@@H]3C[C@H](OC(C)=O)C(C)(C)[C@](O)(C[C@@H]4C/C(=C/C(=O)OC)C[C@H](/C=C/C(C)(C)[C@]1(O)O2)O4)O3 [Bryostatin 1] (0.01 nM) | 109% | 97.7% | 98.6% | 101% | 105% | 105% | 96.1% | 106% | 101% | 108% | 103% | 100% | 101% | 99.1% | 104% | 97.8% | 92.1% | 107% | 118%
14 | CCN(CC)CCNC(=O)c1c(C)[nH]c(/C=C2\C(=O)Nc3ccc(F)cc32)c1C [Sunitinib] (0.1 nM) | 106% | 103% | 95.8% | 108% | 103% | 106% | 105% | 104% | 94.9% | 99.3% | 114% | 93.5% | 99.9% | 100% | 103% | 98.5% | 81.7% | 96.1% | 94.7%
15 | CC(C)N(CCCNC(=O)Nc1ccc(C(C)(C)C)cc1)C[C@H]1O[C@@H](n2cc(Br)c3c(N)ncnc32)[C@H](O)[C@@H]1O [SGC0946] (1 nM) | 95.3% | 89.9% | 92.7% | 99.5% | 91.3% | 93.2% | 94.9% | 93.8% | 102% | 101% | 97.5% | 96% | 98.4% | 99.2% | 97.7% | 94.5% | 104% | 98.5% | 93.8%
16 | Cc1c(Cn2c(C)nc3c(C(=O)O)cc(N4CCOCC4)cc32)cccc1C(F)(F)F (10 nM) | 100% | 104% | 98.8% | 112% | 104% | 107% | 99.5% | 101% | 98.9% | 118% | 100% | 105% | 99.5% | 94.8% | 105% | 101% | 79.4% | 102% | 118%
